# Results from patent US12661373B2, “Electrochemically activated salt solution” (AZAD Pharma AG, priority 2018, dated 2026).
# Columns and labels:
# Assay type in all cases: cell-based
# Settings in all cases: ACV 100 μmol/l, MOI 0.01, titer 24 hpi
# HSV-1 strain ANGpath [1] = assay: In vitro antiviral activity, treatment of Vero cells, plaque assay
# Procedure: (§1) • A. Vero cells were seeded in 24-well plates and treated with dilutions of the ECAS 2 Dil.1:1 and Dil.1:2, either: • I. 24 hours before the infection; • II. 2 hours before the infection; • III. during the infection; • IV. 2 hours post infection; or • V. 6 hours post infection.
# (§2) The cells were infected with the HSV-1 strains Kupka and ANGpath at a multiplicity of infection (MOI) of 0.01. The cells were collected 24 hours post infection (hpi) and the virus titer was determined by plaque assay. Briefly, the samples were serially diluted and plated onto one-day Vero cell-monolayers in 24- or 6-well tissue plates in duplicates. Afterwards, the cells were overlaid with 1% methylcellulose in normal growth media. 5 days post infection, the cells were fixed and stained with 2% crystal violet in 20% ethanol, and the individual plaques were counted to determine the virus titer in each sample. Samples without treatment (Mock, negative control) and samples treated with ACV (Acyclovir, 100 μmol/l, reference control) were handled in the same manner. The test was performed in two independent experiments, where each of the samples was tested in parallel wells. • B. The HSV-1 strains Kupka and ANGpath, were incubated at a MOI of 0.01 with dilutions of the ECAS 2 either Dil.1:1 or Dil.1:2, in a final volume of 100 μl for either: • I. 12 hours; • II. 8 hours; • III. 6 hours; or • IV. 2 hours.
# HSV-1 strain Kupka [2] = assay: as above
# Procedure: as §1, §2
# HSV-1 strain ANGpath [3] = assay: In vitro antiviral activity, pre-incubation of virus before infection of Vero cells, plaque assay
# Procedure: as §2
# (§3) Then cells, which had been seeded in 24-well plates 24 hours before the infection, were infected with the above mentioned pre-incubated viruses. 24 hpi the cells were collected and the virus titer was determined by a plaque assay, as described above. Samples without treatment (Mock, negative control) and samples treated with Acyclovir (100 μmol/l as reference control) were handled in the same manner. The test was performed in two independent experiments, where each of the samples was tested in parallel wells.
# HSV-1 strain Kupka [4] = assay: as above
# Procedure: as §2, §3
# [5] = cells treated 2 h before infection
# [6] = cells treated 24 h before infection
# [7] = virus incubated 2 h before infection
# [8] = virus incubated 6 h before infection
# [9] = virus incubated 8 h before infection
# [10] = virus incubated 12 h before infection
structure (smiles),measurement,setting,value
"Nc1nc2c(ncn2COCCO)c(=O)[nH]1 [ACV, Acyclovir]",Reduction in viral titer,HSV-1 strain ANGpath [1]; cells treated 2 hpi,2.81 log10
same,Reduction in viral titer,HSV-1 strain ANGpath [1]; cells treated 6 hpi,2.38 log10
same,Reduction in viral titer,HSV-1 strain ANGpath [1]; [5],0.61 log10
same,Reduction in viral titer,HSV-1 strain ANGpath [1]; [6],0.54 log10
same,Reduction in viral titer,HSV-1 strain ANGpath [1]; cells treated during infection,2.45 log10
same,Reduction in viral titer,HSV-1 strain Kupka [2]; cells treated 2 hpi,4.52 log10
same,Reduction in viral titer,HSV-1 strain Kupka [2]; cells treated 6 hpi,3.43 log10
same,Reduction in viral titer,HSV-1 strain Kupka [2]; [5],1.96 log10
same,Reduction in viral titer,HSV-1 strain Kupka [2]; [6],1.96 log10
same,Reduction in viral titer,HSV-1 strain Kupka [2]; cells treated during infection,3.69 log10
same,Reduction in viral titer,HSV-1 strain ANGpath [3]; [7],2.85 log10
same,Reduction in viral titer,HSV-1 strain ANGpath [3]; [8],2.59 log10
same,Reduction in viral titer,HSV-1 strain ANGpath [3]; [9],2.97 log10
same,Reduction in viral titer,HSV-1 strain ANGpath [3]; [10],2.56 log10
same,Reduction in viral titer,HSV-1 strain Kupka [4]; [7],4.62 log10
same,Reduction in viral titer,HSV-1 strain Kupka [4]; [8],3.55 log10
same,Reduction in viral titer,HSV-1 strain Kupka [4]; [9],5.17 log10
same,Reduction in viral titer,HSV-1 strain Kupka [4]; [10],3.15 log10
